Data taken from article PMC11855827, “High-Throughput Screening of Five Compound Libraries for Anthelmintic Activity and Toxicity Leads to the Discovery of Two Flavonoid Compounds” (International Journal of Molecular Sciences, 2025).
Where a name gives a salt, the structure may show the parent alone. Read-outs that look alike come from different tables or passages of the source.

Tested on: C. elegans
Test: microbe, parasite or virus in culture
Details: Caenorhabditis elegans
[1] = 0 h, read-out: Percentage of motility inhibition 0 h, Table S2, C. elegans SS assay, 110 μM, 0 h, averages of 4 data points
[2] = 24 h, read-out: Percentage of motility inhibition 24 h, Table S2, C. elegans SS assay, 110 μM, 24 h, averages of 4 data points
[3] = 0 h, read-out: Percentage of motility inhibition 0 h
[4] = 24 h, read-out: Percentage of motility inhibition 24 h

## Nc1ccn([C@H]2CC[C@@H](CO)O2)c(=O)n1 [Zalcitabine]
[1]
  inhibition at 110 µM: 19%
[2]
  inhibition at 110 µM: 20%

## CN1CCN(c2c(F)cc3c(=O)c(C(=O)O)cn4c3c2OCN4C)CC1 [Marbofloxacin]
[1]
  inhibition at 110 µM: 23%
[2]
  inhibition at 110 µM: 9%

## C[C@H]1[C@H](C)CC[C@]2(C(=O)O)CC[C@]3(C)C(=CC[C@@H]4[C@@]5(C)C[C@@H](O)[C@H](O)C(C)(C)[C@@H]5CC[C@]43C)[C@H]12 [Corosolic acid]
[1]
  inhibition at 110 µM: 23%
[2]
  inhibition at 110 µM: 34%

## CCn1cc(C(=O)O)c(=O)c2cnc(N3CCCC3)nc21 [Piromidic acid]
[1]
  inhibition at 110 µM: 9%
[2]
  inhibition at 110 µM: 8%

## C=C[C@]1(C)C[C@@H](OC(=O)CO)[C@]2(C)[C@H](C)CC[C@]3(CCC(=O)[C@H]32)[C@@H](C)[C@@H]1O [Pleuromutilin]
[1]
  inhibition at 110 µM: 33%
[2]
  inhibition at 110 µM: 10%

## CC[C@@H](C(=O)[C@@H](C)[C@@H](O)[C@H](C)CCc1ccc(C)c(O)c1C(=O)O)[C@H]1O[C@](CC)([C@H]2CC[C@](O)(CC)[C@H](C)O2)C[C@@H]1C [Lasalocid]
[1]
  inhibition at 110 µM: 23%
[2]
  inhibition at 110 µM: 21%

## O=C(O)/C=C/C(=O)O [Fumaric acid]
[1]
  inhibition at 110 µM: 8%
[2]
  inhibition at 110 µM: 5%

## C[C@@]12CC[C@@H]3[C@@](CC[C@H]4[C@@]3(C)CCC[C@@]4(C)C(=O)O)(CC1=O)C2 [Isosteviol]
[1]
  inhibition at 110 µM: 0%
[2]
  inhibition at 110 µM: 2%

## CC1COc2c(N3CCN(C)CC3)c(F)cc3c(=O)c(C(=O)O)cn1c23 (stereo not drawn) [Ofloxacin]
[1]
  inhibition at 110 µM: 2%
[2]
  inhibition at 110 µM: 0%

## CC1=CC[C@@H](C(C)(C)O)CC1 [α-Terpineol]
[1]
  inhibition at 110 µM: 22%
[2]
  inhibition at 110 µM: 17%

## COc1c(-c2ccc(O)c(O)c2)oc2cc(O)cc(O)c2c1=O [3‐O‐Methylquercetin]
[1]
  inhibition at 110 µM: 3%
[2]
  inhibition at 110 µM: 16%

## CC(C)(C)C#Cc1cc(N(C(=O)[C@H]2CC[C@H](C)CC2)[C@H]2CC[C@H](O)CC2)c(C(=O)O)s1 [VX‐222]
[1]
  inhibition at 110 µM: 48%
[2]
  inhibition at 110 µM: 57%

## COc1ccc(-c2cc(=O)c3c(O)cc(O)cc3o2)cc1O [Diosmetin]
[3]
  inhibition at 110 µM: 13%
[4]
  inhibition at 110 µM: 0%

## CC(=O)O[C@@H]1C[C@H](O)[C@@]23CO[C@@H](O)[C@]1(C)[C@@H]2C[C@@H](O)[C@]1(C)[C@@H]3C(=O)[C@H](OC(C)=O)[C@@]2(C)[C@H](c3ccoc3)C[C@H]3O[C@]321 [Toosendanin]
[1]
  inhibition at 110 µM: 0%
[2]
  inhibition at 110 µM: 7%

## CC(=O)OCC1=C[C@@H]2OC(=O)C3=CO[C@@H](O[C@@H]4O[C@H](CO)[C@@H](O)[C@H](O)[C@H]4O)[C@H]1[C@@H]32 [Asperuloside]
[1]
  inhibition at 110 µM: 0%
[2]
  inhibition at 110 µM: 5%

## O=C(O)CCC(=O)O [Succinic acid]
[1]
  inhibition at 110 µM: 14%
[2]
  inhibition at 110 µM: 15%

## C=CCOC(Cn1ccnc1)c1ccc(Cl)cc1Cl (stereo not drawn) [Imazalil]
[1]
  inhibition at 110 µM: 35%
[2]
  inhibition at 110 µM: 36%

## O=C1c2ccccc2-n2c1nc1ccccc1c2=O [Tryptanthrin]
[3]
  inhibition at 110 µM: 11%
[4]
  inhibition at 110 µM: 0%

## N[C@@H](Cc1ccccc1)C(=O)O [L-Phenylalanine]
[1]
  inhibition at 110 µM: 23%
[2]
  inhibition at 110 µM: 21%

## CSCC[C@H](N)C(=O)O [L-Methionine]
[1]
  inhibition at 110 µM: 0%
[2]
  inhibition at 110 µM: 0%

## O=C(Nc1ccc(O)cc1)c1ccccc1O [Osalmid]
[1]
  inhibition at 110 µM: 48%
[2]
  inhibition at 110 µM: 1%

## Cc1cc2nc3c(=O)[nH]c(=O)nc-3n(C[C@H](O)[C@H](O)[C@H](O)CO)c2cc1C [Riboflavin]
[1]
  inhibition at 110 µM: 3%
[2]
  inhibition at 110 µM: 6%

## CC1=C2C[C@H]3[C@@H](CC=C4C[C@@H](O)CC[C@@]43C)[C@@H]2CC[C@]12O[C@@H]1C[C@H](C)CN[C@H]1[C@H]2C [Cyclopamine]
[3]
  inhibition at 110 µM: 0%
[4]
  inhibition at 110 µM: 14%

## O=c1c(O)c(-c2ccc(O)c(O)c2)oc2cc(O)c(O)c(O)c12 [Quercetagetin]
[3]
  inhibition at 110 µM: 15%
[4]
  inhibition at 110 µM: 10%

## COc1cc(NS(=O)(=O)c2ccc(N)cc2)nc(OC)n1 [Sulfadimethoxine]
[1]
  inhibition at 110 µM: 15%
[2]
  inhibition at 110 µM: 3%

## CCN(CCO)CCCC(C)Nc1ccnc2cc(Cl)ccc12 (stereo not drawn) [Hydroxychloroquine sulfate]
[1]
  inhibition at 110 µM: 19%
[2]
  inhibition at 110 µM: 9%

## C[C@@]12C[C@@]3(O)O[C@@H](O1)[C@]1(COC(=O)c4ccccc4)[C@H]3C[C@@]12O[C@@H]1O[C@H](CO)[C@@H](O)[C@H](O)[C@H]1O [Paeoniflorin]
[1]
  inhibition at 110 µM: 4%
[2]
  inhibition at 110 µM: 10%

## C[C@H](CC[C@@H](O)C(C)(C)O)[C@H]1CC[C@@]2(C)[C@@H]3CC=C4[C@@H](CC[C@H](O)C4(C)C)[C@]3(C)[C@H](O)C[C@]12C [Mogrol]
[1]
  inhibition at 110 µM: 5%
[2]
  inhibition at 110 µM: 2%

## CC[C@@H]([C@H](C)O)n1ncn(-c2ccc(N3CCN(c4ccc(OC[C@@H]5CO[C@@](Cn6cncn6)(c6ccc(F)cc6F)C5)cc4)CC3)cc2)c1=O [Posaconazole]
[1]
  inhibition at 110 µM: 23%
[2]
  inhibition at 110 µM: 0%

## C=C1[C@H]2C[C@@]3([C@@H]1O)[C@@H](CC2=O)[C@]12[C@@H]4C[C@H]3[C@H]1N(CC)C[C@]4(C)CC[C@@H]2O [Songorine]
[3]
  inhibition at 110 µM: 5%
[4]
  inhibition at 110 µM: 9%

## COc1ccc2c(c1)[nH]c1c(C)nccc12 [Harmine]
[3]
  inhibition at 110 µM: 36%
[4]
  inhibition at 110 µM: 4%

## COC(=O)N/N=C/c1c[n+]([O-])c2ccccc2[n+]1[O-] [Carbadox]
[1]
  inhibition at 110 µM: 4%
[2]
  inhibition at 110 µM: 0%

## Cn1c([N+](=O)[O-])cnc1COC(N)=O [Ronidazole]
[1]
  inhibition at 110 µM: 9%
[2]
  inhibition at 110 µM: 0%

## CC(C)(C)CC(C)(C)c1ccc(O)c(Cc2ccc(Cl)cc2Cl)c1 [Clofoctol]
[1]
  inhibition at 110 µM: 37%
[2]
  inhibition at 110 µM: 44%

## C[C@@H]1CC[C@]2(C(=O)O)CC[C@]3(C)C(=CC[C@@H]4[C@@]5(C)CC[C@H](O)C(C)(C)[C@@H]5CC[C@]43C)[C@@H]2[C@]1(C)O [Pomolic acid]
[1]
  inhibition at 110 µM: 29%
[2]
  inhibition at 110 µM: 67%

## CC(=O)OC[C@]12[C@H](OC(C)=O)[C@H](OC(C)=O)[C@@H]3[C@@H](OC(C)=O)[C@@]14O[C@@]3(C)COC(=O)c1cccnc1CCC(C)C(=O)O[C@@H]([C@H](OC(=O)c1ccco1)[C@@H]2OC(C)=O)[C@]4(C)O (stereo partly drawn) [Wilforgine]
[1]
  inhibition at 110 µM: 12%
[2]
  inhibition at 110 µM: 5%

## COc1cc([C@@H]2[C@H]3CO[C@@]4(O)C(=O)[C@@H]2C=C([C@H]2Oc5cc(O)cc(O)c5C(=O)[C@@H]2O)[C@@H]34)ccc1O [Silydianin]
[1]
  inhibition at 110 µM: 17%
[2]
  inhibition at 110 µM: 4%

## CC1(C)S[C@@H]2[C@H](NC(=O)Cc3ccccc3)C(=O)N2[C@H]1C(=O)O [Penicillin G s odium salt]
[1]
  inhibition at 110 µM: 16%
[2]
  inhibition at 110 µM: 22%

## CCN1C[C@]2(COC)[C@H](O)C[C@H](OC)[C@]34C1[C@H]([C@H](OC)[C@H]23)[C@]1(O)[C@H]2[C@@H](O)[C@](O)(C[C@H]24)[C@@H](OC)[C@@H]1O [Aconine]
[1]
  inhibition at 110 µM: 10%
[2]
  inhibition at 110 µM: 0%

## Cn1c(N2CCCCS2(=O)=O)nc(C(=O)NCc2ccc(F)cc2)c(O)c1=O [BMS‐707035]
[1]
  inhibition at 110 µM: 0%
[2]
  inhibition at 110 µM: 1%

## C/C(=C\CC[C@@H](C)[C@H]1CC[C@@]2(C)C3=CC[C@H]4C(C)(C)[C@@H](O)CC[C@]4(C)C3=CC[C@]12C)CO [Ganoderol B]
[1]
  inhibition at 110 µM: 5%
[2]
  inhibition at 110 µM: 35%

## N[C@@H](Cc1c[nH]cn1)C(=O)O [L-Histidine]
[1]
  inhibition at 110 µM: 23%
[2]
  inhibition at 110 µM: 22%

## C=C1[C@@H](O)[C@]2(O)OC[C@]34[C@H]2[C@@]2(C)[C@H](O)C(=O)C=C(C)[C@@H]2C[C@H]3OC(=O)[C@H](O)[C@@]14O [Eurycomanone]
[1]
  inhibition at 110 µM: 0%
[2]
  inhibition at 110 µM: 4%

## OC(Cn1cncn1)(Cn1cncn1)c1ccc(F)cc1F [Fluconazole]
[1]
  inhibition at 110 µM: 7%
[2]
  inhibition at 110 µM: 12%

## CN(C)Cc1c[nH]c2ccccc12 [Gramine]
[1]
  inhibition at 110 µM: 0%
[2]
  inhibition at 110 µM: 0%

## C[C@H]1[C@H](C)CC[C@]2(C)CC[C@]3(C)C(=CC[C@@H]4[C@@]5(C)CC[C@@H](O)[C@](C)(C(=O)O)[C@@H]5CC[C@]43C)[C@H]12 [β-Boswellic acid]
[3]
  inhibition at 110 µM: 32%
[4]
  inhibition at 110 µM: 22%

## C=C1C(=O)O[C@@H]2/C=C(\C)CC/C=C(\C)CC[C@@H]12 [Costunolide]
[1]
  inhibition at 110 µM: 0%
[2]
  inhibition at 110 µM: 21%

## C[C@H](Cn1cnc2c(N)ncnc21)OCP(=O)(O)O [Tenofovir]
[1]
  inhibition at 110 µM: 22%
[2]
  inhibition at 110 µM: 16%

## O=c1c(O[C@@H]2O[C@H](CO)[C@@H](O)[C@H](O)[C@H]2O)c(-c2ccc(O)c(O)c2)oc2cc(O)cc(O)c12 [Isoquercitrin]
[1]
  inhibition at 110 µM: 31%
[2]
  inhibition at 110 µM: 2%

## COc1ccc2c(c1)CC=C(CO)c1cc3c(cc1-2)OCO3 [Tenuifolin]
[1]
  inhibition at 110 µM: 0%
[2]
  inhibition at 110 µM: 1%

## O=c1c(O[C@@H]2OC[C@@H](O)[C@H](O)[C@H]2O)c(-c2ccc(O)c(O)c2)oc2cc(O)cc(O)c12 [Reynoutrin]
[1]
  inhibition at 110 µM: 0%
[2]
  inhibition at 110 µM: 7%

## COc1ccc2[nH]cc(CCNC(C)=O)c2c1 [Melatonin]
[1]
  inhibition at 110 µM: 66%
[2]
  inhibition at 110 µM: 24%

## COc1c(N2CCNC(C)C2)c(F)cc2c(=O)c(C(=O)O)cn(C3CC3)c12 (stereo not drawn) [Gatifloxaci n]
[1]
  inhibition at 110 µM: 0%
[2]
  inhibition at 110 µM: 0%

## C=C1C[C@]2(O)O[C@@]3(CC2=C(C)C)[C@@H](C)CC[C@@H]13 [Isocurcumenol]
[1]
  inhibition at 110 µM: 5%
[2]
  inhibition at 110 µM: 24%

## CC(C)=C/C=C1\O[C@@H]2CC(C)=CC(=O)[C@@H]2[C@]1(C)O [Bisabolangelone]
[1]
  inhibition at 110 µM: 18%
[2]
  inhibition at 110 µM: 13%

## Cc1ncc(COP(=O)(O)O)c(C=O)c1O [Pyridoxal phosphate]
[1]
  inhibition at 110 µM: 11%
[2]
  inhibition at 110 µM: 4%

## Cc1cn([C@H]2C[C@H](N=[N+]=[N-])[C@@H](CO)O2)c(=O)[nH]c1=O [Zidovudine]
[1]
  inhibition at 110 µM: 7%
[2]
  inhibition at 110 µM: 4%
